Measurements taken from patent US5453524A, “Phosphorus-containing isoprenoid derivatives” (Eisai Co., Ltd., priority 1991, dated 1995).
Where a name gives a salt, the structure may show the parent alone.

These molecules were tested against T1, squalene synthetase (Rattus norvegicus, UniProt Q02769) (assay: inhibitory activity against squalene synthetase with liver microsome of cholestyramine-treated rat). Conditions: liver microsome of cholestyramine-treated Sprague-Dawley rat; 10 μM 3H-FPP, pH 7.4, 37° C., 10 min.
T1 construct: from tissue; host or cells: liver microsomes of cholestyramine-fed Sprague-Dawley rat
T1 sequence (Q02769 1-416): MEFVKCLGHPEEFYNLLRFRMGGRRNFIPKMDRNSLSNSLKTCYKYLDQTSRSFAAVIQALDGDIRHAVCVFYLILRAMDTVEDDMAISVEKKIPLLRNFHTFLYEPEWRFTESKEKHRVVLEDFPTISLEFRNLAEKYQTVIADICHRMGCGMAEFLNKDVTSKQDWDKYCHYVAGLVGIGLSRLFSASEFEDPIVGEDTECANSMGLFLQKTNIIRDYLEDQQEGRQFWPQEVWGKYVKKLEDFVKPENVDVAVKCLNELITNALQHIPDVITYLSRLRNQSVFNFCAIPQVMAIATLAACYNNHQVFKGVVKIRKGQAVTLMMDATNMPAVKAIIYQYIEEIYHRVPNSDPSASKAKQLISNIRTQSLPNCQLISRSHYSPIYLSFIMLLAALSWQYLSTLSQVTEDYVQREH
Type: biochemical
Method: Determination of inhibitory activity against squalene synthetase with liver microsome of cholestyramine-treated rat
1 mM NADPH (nicotinamide adenine dinucleotide phosphate)
10 μM ^3 H-FPP (farnesylpyrophosphoric acid) (10 mCi/mmol, a product of New England Nuclea Co.)
0.1 mg/ml liver microsome of rat 37° C., 10 min.
These components were put in a spit tube as follows: […]
______________________________________
sample solution of 5-fold concentration
1 mg/ml liver microsome of rat
The obtained mixture was preincubated at 37° C. for 5 minutes. 50 μl of 100 μM ^3 H-FPP (10 mCi/mmol; NEN) was added to the resulting mixture to initiate a reaction. After 10 minutes, 1 ml of 4N NaOH was added to the mixture to stop the reaction, followed by the addition thereto of 1 ml of ethanol. The obtained mixture was incubated at 80° C. for 12 hours, cooled with ice and extracted with petroleum ether twice. The petroleum ether layers were separated from the aqueous layer and evaporated to dryness with nitrogen gas. The residue was dissolved in 25 μl of chloroform containing squalene, famesol and cholesterol as markers. The obtained solution was applied to TLC (Empore; 412001-1) and developed under the following conditions:
benzene/isopropyl ether (1: 1), 6 min.
The band of squalene was cut from the plate and examined for radioactivity with a liquid scintillation counter to determine the inhibitory ratio.
(2) Preparation of Liver Microsome of Rat
A Sprague-Dawley rat was fed with food containing 2% of cholestyramine (Dowex 1-X2) for at least 5 days to enhance the cholesterol-biosynthesizing activity of the rat. At midnight (0:00), the liver was extirpated from the rat and washed with a 1.154 (w/v) ice-cooled KCl solution to remove the blood from the liver. The resulting liver was cut into small pieces with scissors, homogenized with a Teflon homogenizer of the loose fitting type and subjected to centrifugation (700 g, 10 min). The obtained supernatant was further subjected to centrifugation (15,000 g, 20 min) and the obtained supernatant was furthermore subjected to centrifugation (105,000 g 60 min) to be separated into a microsome fraction and a supernatant. This microsome fraction was washed with a 0.1M potassium phosphate buffer (pH: 7.4) once and suspended in a 0.1M potassium phosphate buffer in the liver concentration of 3 g/ml. The obtained suspension was examined for protein concentration by the Lowry method and the protein concentration was adjusted to 20 mg/ml.
IC50 values of the squalene synthetase inhibiting activity are given in Tables 1 to 5, wherein Me represents a methyl group and Et an ethyl group.
In the case of `C/C(=C\CC/C(C)=C/CC(P(=O)(O)O)P(=O)(O)O)CC/C=C/c1ccccc1` [Example 20, (E,E,E)-4,8-Dimethyl-12-phenyl-3,7,11-dodecatrienyl-1,1-bis(phosphonic acid disodium salt)], the IC50 is reported as 2 nM.
Molecule `CC(C)=CCC/C(C)=C/CC/C(C)=C/CN(C)C(P(=O)(O)O)P(=O)(O)O` [Example 48, {(E,E)-N-Methyl-3,7,11-trimethyl-2,6,10-dodecatrienylamino}methylbis(phosphonic acid disodium salt)] has an IC50 of 1 nM.
`CC(C)=CCC/C(C)=C/CC/C(C)=C/CNC(P(=O)(O)O)P(=O)(O)O` [Example 47, {(E,E)-3,7,11-Trimethyl-2,6,10-dodecatrienylamino}-methylbis(phosphonic acid sodium salt)] gave an IC50 of 2 nM.
`CC(C)=CCC/C(C)=C/CCC(C)N(C)CCCC(P(=O)(O)O)P(=O)(O)O` (centres unmarked) [Example 18, 4-{(E)-N-Methyl-1,5,9-trimethyl-4,8-decadienylamino}-butyl-1,1-bis(phosphonic acid disodium salt)] showed an IC50 of 3 nM.
For `CC(C)=CCC/C(C)=C/CC/C(C)=C/CN(C)CCCC(C(=O)O)P(=O)(O)O` (centres unmarked) [Example 35, Trisodium salt of 1-carboxy,4-{(E,E)-N-methyl-3,7,11-trimethyl-2,6,10-dodecatrienylamino}burylphosphonic acid], the IC50 was 20 nM.
`CC(C)=CCC/C(C)=C/CC/C(C)=C/CCC(C(=O)O)P(=O)(O)O` (centres unmarked) [Example 33, Trisodium salt of-(E,E)-1-carboxy-5,9,13-trimethyl-4,8,12-tetradecatrienylphosphonic acid] gave an IC50 of 180 nM.
With `C/C(=C\CC(P(=O)(O)O)P(=O)(O)O)CC/C=C/c1ccccc1` [Example 22, (E,E)-4-Methyl-8-phenyl-3,7-octadienyl-1,1-bis(phosphonic acid disodium salt)] the IC50 was 1 nM.
For `CC(C)=CCC/C(C)=C/CCC(C)N(C)CCCCC(P(=O)(O)O)P(=O)(O)O` (centres unmarked) [Example 46, 5-{(E}-N-Methyl-1,5,9-trimethyl-4,8-decadienylamino}-pentyl-1,1-bis(phosphonic acid disodium salt)], the IC50 was 2 nM.
`CC(C)=CCC/C(C)=C/CC/C(C)=C/C=C/CC(C(=O)O)P(=O)(O)O` (centres unmarked) [Example 34, Trisodium salt of (E,E,E)-1-carboxy-6,10,14-trimethyl-3,5,9,13-pentadecatetraenylphosphonic acid] gave an IC50 of 600 nM.
Work on `CC(C)=CCC/C(C)=C/CN(C)CCCC(P(=O)(O)O)P(=O)(O)O` [Example 43, 4-{(E)-N-Methyl-3,7-dimethyl-2,6-octadienylamino}butyl 1,1-bis(phosphonic acid disodium salt)] yielded an IC50 of 3 nM.
Work on `CC(C)=CCC/C(C)=C/CCN(C)CCCC(P(=O)(O)O)P(=O)(O)O` [Example 19, 4-{(E)-N-Methyl-4,8-dimethyl-3,7-nonadienylamino}-butyl-1,1-bis(phosphonic acid disodium salt)] yielded an IC50 of 1 nM.
With `CC(C)=CCC/C(C)=C/CC/C(C)=C/CCC(P(=O)(O)O)P(=O)(O)O` [Example 14, (E,E)-5,9,13-Trimethyl-4,8,12-tetradecatrienyl-1,1-bis(phosphonic acid disodium salt)] the IC50 was 5 nM.
`C/C(=C\CC(P(=O)(O)O)P(=O)(O)O)CC/C=C(\C)c1ccccc1` [Example 21, (E,E)-4-Methyl-8-phenyl-3,7-nonadienyl-1,1-bis(phosphonic acid disodium salt)] was tested, and the IC50 was 1 nM.
`CC(C)=CCC/C(C)=C/CC/C(C)=C/CC/C(C)=C/CC(P(=O)(O)O)P(=O)(O)O` [Example 16, (E,E,E)-4,8,12,16-Tetramethyl-3,7,11,15-heptadecatetraenyl-1,1-bis(phosphonic acid disodium salt)] gave an IC50 of 8 nM.
Molecule `CC(C)=CCC/C(C)=C/CNCCCC(P(=O)(O)O)P(=O)(O)O` [Example 45, 4-{(E)-3,7-Dimethyl-2,6-octadienylamino}butyl-1,1-bis(phosphonic acid disodium salt)] has an IC50 of 3 nM.
`CC(C)=CCC/C(C)=C/CC/C(C)=C/CC(C(=O)O)P(=O)(O)O` (centres unmarked) [Example 32, Trisodium salt of (E,E)-carboxy-4,8,12-trimethyl-3,7,11-tridecatrienylphosphonic acid] was tested, and the IC50 was 1600 nM.
In the case of `CC(C)=CCC/C(C)=C/CC/C(C)=C/CN(C)CCCC(P(=O)(O)O)P(=O)(O)O` [Example 17, 4-{(E,E)-N-Methyl-3,7,11-trimethyl-2,6,10-dodecatrienylamino}butyl-1,1-bis(phosphonic acid disodium salt)], the IC50 is reported as 2 nM.
`CCOC(=O)C(C/C=C(\C)CC/C=C(\C)CCC=C(C)C)P(=O)(O)O` (centres unmarked) [Example 31, Disodium (E,E)-1-carboethoxy4,8,12-trimethyl-3,7,11-tridecatrienylphosphonate] was tested, and the IC50 was 9400 nM.
With `CC(C)=CCC/C(C)=C/CC/C(C)=C/CN(C)CCCCC(P(=O)(O)O)P(=O)(O)O` [Example 49, 5-{(E,E)-N-Methyl-3,7,11-trimethyl-2,6,10-dodecatrienylamino}pentyl-1,1-bis(phosphonic acid disodium salt)] the IC50 was 2 nM.
In the case of `CCOP(=O)(O)C(C/C=C/C=C(\C)CC/C=C(\C)CCC=C(C)C)C(=O)O` (centres unmarked) [Example 30, Disodium salt of ethyl (E,E,E)-1-carboxy-6,10,14-trimethyl-3,5,9,13-pentadecatetraenylphosphonate], the IC50 is reported as 7100 nM.
Work on `CCN(C/C=C(\C)CCC=C(C)C)CCCC(P(=O)(O)O)P(=O)(O)O` [Example 44, 4-{(E)-N-Ethyl-3,7-dimethyl-2,6-octadienylamino}butyl-1,1-bis(phosphoric acid disodium salt)] yielded an IC50 of 3 nM.
Work on `CC(C)=CCC/C(C)=C/CCC(C)N(C)CCCC(C(=O)O)P(=O)(O)O` (centres unmarked) [Example 51, Trisodium salt of 1-carboxy-4,{(E)-N-methyl-1,5,9-trimethyl-4,8-decadienylamino}butylphosphonic acid] yielded an IC50 of 14 nM.
In the case of `CC(C)=CCC/C(C)=C/CC(P(=O)(O)O)P(=O)(O)O` [Example 15, (E)-4,8-Dimethyl3,7-nonadienyl-1,1-bis(phosphonic acid disodium salt)], the IC50 is reported as 300 nM.
With `CC(C)=CCC/C(C)=C/CC/C(C)=C/CC(P(=O)(O)O)P(=O)(O)O` [Example 13, (E,E)-4,8,12-Trimethyl-37,11-tridecatrienyl-1,1-bis(phosphonic acid disodium salt)] the IC50 was 3 nM.
In the case of `C/C(=C\CN(C)CCCC(P(=O)(O)O)P(=O)(O)O)CC/C=C(\C)c1ccccc1` [Example 23, 4-{(E,E)-N-Methyl-3-methyl-7-phenyl-2,6-octadienylamino}-butyl-1,1-bis(phosphonic acid disodium salt)], the IC50 is reported as 0.5 nM.
`CCOP(=O)(O)C(CC/C=C(\C)CC/C=C(\C)CCC=C(C)C)C(=O)O` (centres unmarked) [Example 29, Disodium salt of ethyl(E,E)-1-carboxy-5,9,13-trimethyl-4,8,12-tetradecatrienylphosphonate] was tested, and the IC50 was 7300 nM.
